In assay [1] the target is T1, human recombinant adrenergic α1D receptor (Homo sapiens, UniProt P25100).
T1 construct: expressed in transfected cells; host or cells: HEK-293 cells
T1 sequence (P25100 1-572): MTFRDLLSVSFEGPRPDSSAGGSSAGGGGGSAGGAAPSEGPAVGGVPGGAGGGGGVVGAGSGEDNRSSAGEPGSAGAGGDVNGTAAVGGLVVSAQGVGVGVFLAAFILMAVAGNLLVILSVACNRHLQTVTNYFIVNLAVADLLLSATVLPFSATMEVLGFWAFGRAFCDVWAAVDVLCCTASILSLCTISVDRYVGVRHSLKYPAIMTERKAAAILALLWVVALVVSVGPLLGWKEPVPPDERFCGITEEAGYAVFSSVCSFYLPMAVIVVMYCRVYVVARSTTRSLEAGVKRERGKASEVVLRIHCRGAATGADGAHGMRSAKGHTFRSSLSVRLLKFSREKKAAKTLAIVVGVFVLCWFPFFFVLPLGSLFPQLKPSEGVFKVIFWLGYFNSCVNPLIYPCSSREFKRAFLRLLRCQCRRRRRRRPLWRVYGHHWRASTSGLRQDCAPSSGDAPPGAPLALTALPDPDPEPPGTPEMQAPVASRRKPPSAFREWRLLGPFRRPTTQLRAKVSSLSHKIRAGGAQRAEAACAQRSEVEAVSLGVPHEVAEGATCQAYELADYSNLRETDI
In words: Adrenergic alpha1D radioligand binding ([3H]Prozosin). The note with it: compound at 1 μM; read-out: Adrenergic (1 μM) α1D, percent inhibition of specific binding. Summed up: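 Membranes from HEK-293 cells expressing the human receptor in 50 mM Tris-HCl pH 7.4 were incubated 60 min at 25 °C with 0.6 nM [3H]prazosin. Nonspecific binding was defined with 10 μM phentolamine, and bound ligand measured by filtration.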

The target in assay [2] is T2, human recombinant histamine H2 receptor (Homo sapiens, UniProt P25021).
T2 construct: expressed in transfected cells; host or cells: CHO-K1 cells
T2 sequence (P25021 whole entry): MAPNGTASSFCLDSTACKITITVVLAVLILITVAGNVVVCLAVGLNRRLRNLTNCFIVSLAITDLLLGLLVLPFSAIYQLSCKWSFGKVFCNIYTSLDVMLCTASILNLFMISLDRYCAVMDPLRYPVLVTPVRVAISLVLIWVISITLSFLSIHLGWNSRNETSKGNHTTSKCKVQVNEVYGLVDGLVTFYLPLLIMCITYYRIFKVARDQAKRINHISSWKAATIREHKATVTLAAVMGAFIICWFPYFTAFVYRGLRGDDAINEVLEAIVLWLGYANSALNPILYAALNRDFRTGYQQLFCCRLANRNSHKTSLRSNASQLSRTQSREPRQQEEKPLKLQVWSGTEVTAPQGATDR
Description: Histamine H2 radioligand binding ([125I]Aminopotentidine). The conditions noted are these: compound at 1 μM; read-out: Histamine Binding (1 μM) H2, percent inhibition of specific binding. The method, boiled down: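 Membranes from CHO-K1 cells expressing recombinant human H2 receptor, in 50 mM phosphate buffer pH 7.4, incubated with 0.1 nM [125I]aminopotentidine for 120 min at 25 °C; nonspecific binding defined with 3 μM tiotidine.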

Assay [3] addresses T3, human recombinant histamine H1 receptor (Homo sapiens, UniProt P35367).
T3 construct: expressed in transfected cells; host or cells: CHO cells
Description: Histamine H1 radioligand binding ([3H]Pyrilamine). The note with it: compound at 1 μM; read-out: Histamine Binding (1 μM) H1, percent inhibition of specific binding. The method, boiled down: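 Membranes from CHO cells expressing the receptor were incubated with compound and 1.2 nM [3H]pyrilamine for 180 min at 25 °C in 50 mM Tris-HCl pH 7.4 with MgCl2, NaCl and sucrose; 1 μM pyrilamine defined non-specific binding. Filter-bound radioactivity was counted.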

For assay [4], the target named is T4, human recombinant adrenergic α2A receptor (Homo sapiens, UniProt P08913).
T4 construct: expressed in transfected cells; host or cells: insect Sf9 cells
T4 sequence (P08913 1-465): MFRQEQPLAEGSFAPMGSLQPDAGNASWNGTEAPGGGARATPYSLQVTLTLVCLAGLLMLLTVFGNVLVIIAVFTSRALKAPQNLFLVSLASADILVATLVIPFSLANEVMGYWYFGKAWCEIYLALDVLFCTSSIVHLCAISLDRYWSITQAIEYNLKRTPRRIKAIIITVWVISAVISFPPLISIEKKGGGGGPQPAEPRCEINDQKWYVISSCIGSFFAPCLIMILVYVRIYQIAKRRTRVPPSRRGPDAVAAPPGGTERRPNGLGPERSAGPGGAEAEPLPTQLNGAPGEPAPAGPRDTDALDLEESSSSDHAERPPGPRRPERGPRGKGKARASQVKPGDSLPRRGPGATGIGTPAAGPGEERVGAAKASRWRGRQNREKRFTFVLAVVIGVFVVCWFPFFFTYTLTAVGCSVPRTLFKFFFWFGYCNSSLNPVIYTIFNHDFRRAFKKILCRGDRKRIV
Description: Adrenergic alpha2A radioligand binding ([3H]MK-912). The note with it: compound at 1 μM; read-out: Adrenergic (1 μM) α2A, percent inhibition of specific binding. The method, boiled down: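 Membranes of Sf9 cells expressing human recombinant α2A receptor were incubated with compound and 1 nM [3H]MK-912 for 60 min at 25 °C in 50 mM Tris-HCl pH 7.4, 12.5 mM MgCl2, 2 mM EDTA. Nonspecific binding: 10 μM WB-4101.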

T3 sequence (P35367 whole entry): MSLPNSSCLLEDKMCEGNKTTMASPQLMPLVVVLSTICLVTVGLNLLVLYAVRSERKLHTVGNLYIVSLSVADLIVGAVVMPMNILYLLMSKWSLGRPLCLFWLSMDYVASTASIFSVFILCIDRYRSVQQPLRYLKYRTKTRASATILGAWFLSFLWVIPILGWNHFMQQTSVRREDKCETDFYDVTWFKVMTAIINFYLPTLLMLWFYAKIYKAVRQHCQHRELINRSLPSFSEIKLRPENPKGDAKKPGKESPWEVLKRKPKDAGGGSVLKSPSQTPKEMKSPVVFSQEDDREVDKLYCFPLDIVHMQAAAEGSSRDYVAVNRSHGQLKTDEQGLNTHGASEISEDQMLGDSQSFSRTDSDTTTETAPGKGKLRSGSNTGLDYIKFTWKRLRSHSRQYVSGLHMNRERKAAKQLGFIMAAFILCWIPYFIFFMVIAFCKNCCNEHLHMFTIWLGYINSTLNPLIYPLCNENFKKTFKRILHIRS

In the case of `CC1CCN(C(=O)Cn2c3c(c4cc(Cl)ccc42)CCN(C)CC3)CC1` [Compound No. 76, 2-(9-chloro-2,3,4,5-tetrahydro-3-methylazepino[4,5-b]indol-6(1H)-yl)-1-(4-methylpiperidin-1-yl)ethanone], the inhibition at 1 µM in assay [1] is 37%; in assay [2] it was 19%; in assay [3] it was 95%; in assay [4], 7%.

As a reminder, the inhibition is the percentage by which the read-out fell short of the control.

The values are drawn from patent US9481676B2, “Azepino[4,5-B]indoles and methods of use” (Medivation Technologies, Inc., priority 2008, dated 2016).
